Our source for the IC50 and t1/2 values is ChEMBL document CHEMBL1152372, “A stabilized demethoxyviridin derivative inhibits PI3 kinase” (Bioorg Med Chem Lett, 2009).

Chain of Phosphatidylinositol 4,5-bisphosphate 3-kinase catalytic subunit alpha isoform (P42336 whole entry, canonical isoform): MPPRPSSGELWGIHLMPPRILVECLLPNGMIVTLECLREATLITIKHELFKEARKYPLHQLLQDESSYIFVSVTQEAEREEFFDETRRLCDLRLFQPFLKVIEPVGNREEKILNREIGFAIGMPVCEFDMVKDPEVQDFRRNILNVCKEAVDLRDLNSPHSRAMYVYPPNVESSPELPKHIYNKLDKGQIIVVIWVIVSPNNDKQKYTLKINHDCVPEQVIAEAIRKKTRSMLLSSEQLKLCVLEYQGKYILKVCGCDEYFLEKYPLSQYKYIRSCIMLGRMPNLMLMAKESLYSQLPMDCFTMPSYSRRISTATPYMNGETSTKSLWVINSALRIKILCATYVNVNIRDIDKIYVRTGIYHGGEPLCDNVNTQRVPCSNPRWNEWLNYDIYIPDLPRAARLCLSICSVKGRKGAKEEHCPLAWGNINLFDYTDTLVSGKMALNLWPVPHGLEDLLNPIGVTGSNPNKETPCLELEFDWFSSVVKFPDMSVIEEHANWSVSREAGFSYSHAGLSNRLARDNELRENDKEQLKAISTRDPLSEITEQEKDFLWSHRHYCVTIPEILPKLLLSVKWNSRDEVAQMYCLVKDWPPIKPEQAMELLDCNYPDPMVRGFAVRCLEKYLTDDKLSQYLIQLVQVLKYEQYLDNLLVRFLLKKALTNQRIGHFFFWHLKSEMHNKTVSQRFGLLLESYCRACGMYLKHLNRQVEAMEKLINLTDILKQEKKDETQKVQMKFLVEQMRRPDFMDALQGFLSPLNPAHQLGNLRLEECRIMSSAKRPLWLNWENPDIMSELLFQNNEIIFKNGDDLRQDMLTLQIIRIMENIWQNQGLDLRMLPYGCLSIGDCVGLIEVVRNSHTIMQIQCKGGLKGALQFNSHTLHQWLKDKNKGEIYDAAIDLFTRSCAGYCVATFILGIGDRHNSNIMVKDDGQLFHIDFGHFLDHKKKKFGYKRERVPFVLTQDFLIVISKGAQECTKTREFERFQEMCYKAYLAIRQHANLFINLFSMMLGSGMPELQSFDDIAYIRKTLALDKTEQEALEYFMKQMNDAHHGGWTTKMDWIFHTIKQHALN

One data set concerns the target Phosphatidylinositol 4,5-bisphosphate 3-kinase catalytic subunit alpha isoform (Homo sapiens, UniProt P42336). Nature of the data set: Inhibition of PI3 kinase.
Settings: not given
Usually IC50 stands for the concentration at which inhibition is half-maximal. Read a low IC50 as inhibition by little substance. Compound `COC[C@H]1OC(=O)/C(=C\NCCCCC(NC(C)=O)C(=O)O)C2=C(O)C(=O)C3=C([C@H](OC(C)=O)C[C@]4(C)C(=O)CC[C@@H]34)[C@]21C` (stereo partly drawn) returned an IC50 of more than 1000 nM.

As for `COC[C@H]1OC(=O)/C(=C\N2CCCC2C(=O)O)C2=C(O)C(=O)C3=C([C@H](OC(C)=O)C[C@]4(C)C(=O)CC[C@@H]34)[C@]21C` (stereo partly drawn), the midpoint of inhibition, the IC50, lay at 68 nM. This lies in the double-digit nanomolar range.

In turn, `C[C@@]12c3ccc4c(c3C(=O)c3occ(c31)C(=O)C[C@H]2OC(=O)CCC(=O)O)CCC4=O` came in with an IC50 of 20 nM.

The compound `C[C@@]12c3ccc4c(c3C(=O)c3occ(c31)C(=O)C[C@H]2O)CCC4=O` [DEMETHOXYVIRIDIN] showed a half-inhibitory concentration (IC50) of 1 nM.

Test system in the next data set: not listed separately
Nature of the data set: Stability in PBS at pH 7.4 assessed as half life at 1.5 mM by HPLC in presence of NAc-lysine. Type of data set: physicochemical. The note with it: buffer, pH 7.4, 1500 µM.
In the case of `C[C@]12C(=C(O)C(=O)c3c1ccc1c3CCC1=O)/C(=C/NCC(=O)O)C(=O)C[C@H]2OC(=O)CCC(=O)O`, the t1/2 stood at 94 min.

With `C[C@@]12c3ccc4c(c3C(=O)c3occ(c31)C(=O)C[C@H]2OC(=O)CCC(=O)O)CCC4=O`, the t1/2 was found to be 23 min.

Regarding `C[C@@]12c3ccc4c(c3C(=O)c3occ(c31)C(=O)C[C@H]2O)CCC4=O` [DEMETHOXYVIRIDIN], the t1/2 turned out to be 0.61 min.

As to `COC[C@H]1OC(=O)c2coc3c2[C@@]1(C)C1=C(C3=O)[C@@H]2CCC(=O)[C@@]2(C)C[C@H]1OC(C)=O` [WORTMANNIN], the t1/2 is given as 18.4 min.

Test system in a further data set: not listed separately
Nature of the data set: Stability in PBS at pH 7.4 assessed as half life at 1.5 mM by HPLC. The conditions noted are these: buffer, pH 7.4, 1500 µM. Type of data set: physicochemical.
Consider `C[C@]12C(=C(O)C(=O)c3c1ccc1c3CCC1=O)/C(=C/NCC(=O)O)C(=O)C[C@H]2OC(=O)CCC(=O)O`, for which the t1/2 was 3.63 h.

In the case of `C[C@@]12c3ccc4c(c3C(=O)c3occ(c31)C(=O)C[C@H]2OC(=O)CCC(=O)O)CCC4=O`, the t1/2 was 2 h.

With `C[C@@]12c3ccc4c(c3C(=O)c3occ(c31)C(=O)C[C@H]2O)CCC4=O` [DEMETHOXYVIRIDIN], the t1/2 was found to be 0.433 h.

On to `COC[C@H]1OC(=O)c2coc3c2[C@@]1(C)C1=C(C3=O)[C@@H]2CCC(=O)[C@@]2(C)C[C@H]1OC(C)=O` [WORTMANNIN], for which the t1/2 turned out to be 57.83 h.

Test system in another data set: not listed separately
In words: Stability in PBS at pH 7.4 assessed as half life at 1.5 mM by HPLC in presence of proline. The class given is physicochemical. The conditions noted are these: buffer, pH 7.4, 1500 µM.
`C[C@]12C(=C(O)C(=O)c3c1ccc1c3CCC1=O)/C(=C/NCC(=O)O)C(=O)C[C@H]2OC(=O)CCC(=O)O`: the t1/2 is recorded as 126 min.

On to `C[C@@]12c3ccc4c(c3C(=O)c3occ(c31)C(=O)C[C@H]2OC(=O)CCC(=O)O)CCC4=O`, for which the t1/2 came to 108 min.

As to `C[C@@]12c3ccc4c(c3C(=O)c3occ(c31)C(=O)C[C@H]2O)CCC4=O` [DEMETHOXYVIRIDIN], the t1/2 is reported as 0.59 min.

`COC[C@H]1OC(=O)c2coc3c2[C@@]1(C)C1=C(C3=O)[C@@H]2CCC(=O)[C@@]2(C)C[C@H]1OC(C)=O` [WORTMANNIN]: the t1/2 worked out at 1.5 min.

Test system in a further data set: not listed separately
Nature of the data set: Stability in RPMI culture media assessed as half life at 1.5 mM by HPLC. The class given is physicochemical. The note with it: 1500 µM.
As to `C[C@]12C(=C(O)C(=O)c3c1ccc1c3CCC1=O)/C(=C/NCC(=O)O)C(=O)C[C@H]2OC(=O)CCC(=O)O`, the t1/2 came out at 64 min.

Take `C[C@@]12c3ccc4c(c3C(=O)c3occ(c31)C(=O)C[C@H]2OC(=O)CCC(=O)O)CCC4=O`: the t1/2 is 0.43 min.

On to `C[C@@]12c3ccc4c(c3C(=O)c3occ(c31)C(=O)C[C@H]2O)CCC4=O` [DEMETHOXYVIRIDIN], for which the t1/2 turned out to be 0.47 min.

Regarding `COC[C@H]1OC(=O)c2coc3c2[C@@]1(C)C1=C(C3=O)[C@@H]2CCC(=O)[C@@]2(C)C[C@H]1OC(C)=O` [WORTMANNIN], the t1/2 turned out to be 0.99 min.

Test system in the next data set: not listed separately
Nature of the data set: Stability in PBS at pH 7.4 assessed as half life at 1.5 mM by HPLC in presence of glycine. Type of data set: physicochemical. The note with it: buffer, pH 7.4, 1500 µM.
With `C[C@@]12c3ccc4c(c3C(=O)c3occ(c31)C(=O)C[C@H]2OC(=O)CCC(=O)O)CCC4=O`, the t1/2 was determined as 13.5 min.

`C[C@@]12c3ccc4c(c3C(=O)c3occ(c31)C(=O)C[C@H]2O)CCC4=O` [DEMETHOXYVIRIDIN]: the t1/2 is on record as 0.99 min.

For `COC[C@H]1OC(=O)c2coc3c2[C@@]1(C)C1=C(C3=O)[C@@H]2CCC(=O)[C@@]2(C)C[C@H]1OC(C)=O` [WORTMANNIN], the t1/2 was found to be 4.1 min.
